Measurements taken from patent publication US20080274096A1, “Fusion Proteins Having a Modulated Half-Life in Plasma” (ASTRAZENECA AB, priority 2005, published 2008).

Legend:
Type in all cases: biochemical
[1] = biological target: T1, Human recombinant Neprilysin (Homo sapiens, UniProt P08473); assay: Inhibition of Neprilysin degradation of amyloid β1-40 peptide in buffer; design: Degradation of Amyloid β Peptide by Soluble Neprilysin; purchased R&D Systems; settings: 10 microM Phosphoramidone; Neprilysin 1.8 μg/ml; 3 hours, 37° C.
T1 sequence (P08473 52-750 limits assumed): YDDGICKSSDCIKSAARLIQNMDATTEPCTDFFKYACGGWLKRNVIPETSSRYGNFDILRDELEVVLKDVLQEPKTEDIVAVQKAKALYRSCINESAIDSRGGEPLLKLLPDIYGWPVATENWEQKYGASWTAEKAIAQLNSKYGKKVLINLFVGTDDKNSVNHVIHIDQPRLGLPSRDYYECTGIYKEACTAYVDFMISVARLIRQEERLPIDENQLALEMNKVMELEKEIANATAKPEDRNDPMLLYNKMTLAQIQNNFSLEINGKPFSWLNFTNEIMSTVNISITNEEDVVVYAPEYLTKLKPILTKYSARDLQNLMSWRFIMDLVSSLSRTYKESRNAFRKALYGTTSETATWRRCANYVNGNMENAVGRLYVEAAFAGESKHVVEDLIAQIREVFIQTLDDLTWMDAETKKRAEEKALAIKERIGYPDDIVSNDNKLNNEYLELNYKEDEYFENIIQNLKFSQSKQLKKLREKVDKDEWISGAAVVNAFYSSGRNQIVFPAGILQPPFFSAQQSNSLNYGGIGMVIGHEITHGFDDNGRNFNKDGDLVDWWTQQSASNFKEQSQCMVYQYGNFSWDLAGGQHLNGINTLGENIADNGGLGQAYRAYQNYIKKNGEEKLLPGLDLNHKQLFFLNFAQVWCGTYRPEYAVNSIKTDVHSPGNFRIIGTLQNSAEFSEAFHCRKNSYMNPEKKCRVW
Experimental: The assay is measuring the remaining amyloid β1-40 peptide (Bachem) concentration following its incubation in the presence of Neprilysin (R&D Systems) with or without Neprilysin inhibitor. 100 μl of reaction mixture containing of amyloid β1-40 peptide (final concentration 1 or 10 μM) and/or Neprilysin (1.8 μg/ml), and/or Phosphoramidone (10 μM) was incubated in a round bottom 96-well polypropylene plate at 37° C. for 3 hours. Following incubation, 50 μl of antibodies solution containing anti-Aβ40 (final concentration 0.125 μg/ml; Biosource) and Biotinylated 6E10 (final concentration 0.125 μg/ml; Signet) antibodies was added to each well. Plate was incubated at RT for 3 h. Following incubation, 50 μl of detection mixture of Dynabeads M280 (Dynal Biotech ASA) and secondary antibody Ru-GαR (final concentration 0.132 μg/ml) was added to all wells. Plate was incubated on a shaker at RT for 1 h and results were recorded on IGEN/Bio Veris M8 analyser. Amyloid β1-40 peptide degradation by Neprilysin was calculated as a percentage of Amyloid β1-40 peptide left after incubation in the presence of Neprilysin compared to the amyloid β1-40 peptide concentration in the absence of Neprilysin.

[2] = biological target: T1, Human recombinant Neprilysin; assay: Inhibition of added Neprilysin degradation of Aβ40 in guinea pig plasma; design: purchased R&D Systems; host or cells: enzyme added to pooled heparinized guinea pig plasma; settings: 10 microM Phosphoramidon
Experimental: Blood was withdrawn from anaesthetized guinea pigs by heart puncture. The blood were collected into prechilled heparin-plasma tubes and centrifuged for 10 min at 4° C. at 3000×g within 20 minutes of sampling. Plasma samples were transferred to pre-chilled polypropylene tubes and immediately frozen on dry ice and stored at −70° C. prior to use. The experiments were performed on a pool of plasma from 5-6 guinea pigs.
Human recombinant Neprilysin in a buffer containing 25 mM Tris and 100 mM NaCl pH 8 (R&D Systems) or buffer only (i.e. vehicle) was incubated with guinea pig plasma at 37° C. for 0-360 minutes in presence or absents of 10 microM phosphoramidon (Biomol). A final concentration of 4.7 mM EDTA was added into the tubes before the amount of Aβ1-40 or Aβ1-42 was analyzed by using commercial ELISA kits obtained from Biosource (Aβ1-40) or Innogenetics (Aβ1-42).

amyloid β peptide = assay: Two-compartment membrane experiment, degradation of amyloid β peptide; settings: degradation in one compartment connected through a membrane
Experimental: An experiment is performed to investigate the possibility to remove amyloid β peptide from one compartment by degradation in another compartment connected through a membrane. A similar experiment was conducted using an antibody as an amyloid β peptide agent. The experiment is described by DeMattos et al., (PNAS, 2001). By degrading the amyloid β peptide with neprilysin and/or NEP-Fc in one compartment the concentration of amyloid β peptide in the other compartment is decreased. Importantly, neprilysin or NEP-Fc cannot cross the membrane due to its high molecular weight (161.000 Da and 211.000 Da, respectively).

Neprilysin activity (Aβ1-40 degradation) in the presence of inhibitor [1]	Degradation of Aβ40 by added Neprilysin in the presence of inhibitor [2]	Compound	Concentration of amyloid β peptide in the other compartment (amyloid β peptide)
completely abolished	inhibited	CC(C)C[C@H](NP(=O)(O)O[C@@H]1O[C@@H](C)[C@H](O)[C@@H](O)[C@H]1O)C(=O)N[C@@H](Cc1c[nH]c2ccccc12)C(=O)O [Phosphoramidon]	–
–	–	NEP-Fc: extracellular domain of Neprilysin fused to the IgG4 Fc domain including hinge region, SEQ ID 8	decreased
